In brackets after ≈: the same amount, converted by molar mass.
Legend:
[1] = test system: Mannheimia haemolytica, 3 isolates; assay: MIC against Mannheimia haemolytica isolates; type: cell-based; conditions: Mannheimia haemolytica, 3ISOLATES, 3 Mannheimia haemolytica isolates; broth dilution method; read-out: Range of minimum inhibitory concentrations (MIC)
Experimental: (§1) Minimal inhibitory concentrations (MICs) were determined against the most prevalent pathogens in cattle (Mannheimia Haemolytica, 3 isolates) and swine (A. pleuropneumoniae, 6 isolates). In addition the activity of several compounds was tested against two bacterial species, i.e. Mannheimia haemolytica and Actinobacillus pleuropneumoniae, which are considered as the most important bacterial respiratory pathogens in cattle and swine, respectively.

[2] = test system: Actinobacillus pleuropneumoniae, 6 isolates; assay: MIC against Actinobacillus pleuropneumoniae isolates; type: cell-based; conditions: 6ISOLATES; 6 Actinobacillus pleuropneumoniae isolates; broth dilution method; read-out: Range of minimum inhibitory concentrations (MIC)
Experimental: as §1

[3] = test system: Arcanobacterium pyogenes; assay: MIC50 mastitis pathogens, broth dilution; type: cell-based; conditions: Trueperella pyogenes, A. pyogenes, 7 to 12 isolates, 24 hours
Excerpt: (§2) The activity of several compounds against bacterial mastitis pathogens has been tested under in-vitro conditions according to a recognized procedure (CLSI, document […]-A3, 2008). In this test 7 to 12 representative bacteria belonging to 7 bacterial species that typically cause mastitis in dairy cattle, i.e. Staphylococcus aureus, coagulase negative staphylococci (CNS), Streptococcus uberis, Streptococus dysgalactiae, Streptococcus agalactiae, Arcanobacterium pyogenes and Escherichia coli, were exposed to two-fold dilutions of the test compounds. After 24 hours of incubation the concentration that inhibited the growth of this bacteria was determined. It could be shown that all these bacterial mastitis pathogens were highly susceptible to the test compounds.

[4] = test system: Escherichia coli; assay: MIC50 mastitis pathogens, broth dilution; type: cell-based; conditions: E. coli, 7 to 12 isolates, 24 hours
Excerpt: as §2

[5] = test system: Staphylococcus aureus; assay: MIC50 mastitis pathogens, broth dilution; type: cell-based; conditions: S. aureus, 7 to 12 isolates, 24 hours
Excerpt: as §2

[6] = test system: Streptococcus agalactiae; assay: MIC50 mastitis pathogens, broth dilution; type: cell-based; conditions: Str agalactiae, 7 to 12 isolates, 24 hours
Excerpt: as §2

[7] = test system: Streptococcus uberis; assay: MIC50 mastitis pathogens, broth dilution; type: cell-based; conditions: Str uberis, 7 to 12 isolates, 24 hours
Excerpt: as §2

[8] = test system: Streptococus dysgalactiae; assay: MIC50 mastitis pathogens, broth dilution; type: cell-based; conditions: Str dysgalactiae, 7 to 12 isolates, 24 hours
Excerpt: as §2

[9] = test system: coagulase negative staphylococci (CNS); assay: MIC50 mastitis pathogens, broth dilution; type: cell-based; conditions: 7 to 12 isolates, 24 hours
Excerpt: as §2

[10] = test system: S. aureus bacteria (strain Newbould); assay: Mouse mastitis model of infection; type: in vivo, mice; conditions: for mean S. aureus count in glands: 14 hours after application, untreated 8.64 log 10
Excerpt: The clinical efficacy of compound YT709 against mastitis caused by S. aureus was shown in lactating mice according to a recognized published procedure (E. Brouillette, G. Grondin, C. Lefebvre, B. G. Talbot, F. Malouin, Mouse mastitis model of infection for antimicrobial compound efficacy studies against intracellular and extracellular forms of Staphylococcus aureus, Veterinary Microbiology, 101, (2004), 253-262). Into the glands of lactating mice S. aureus bacteria (strain Newbould) were instilled and allowed to multiply. Bacterium S. aureus Newbould is an isolate which was isolated from a clinical case of bovine mastitis and which also causes typical mastitis infection in dairy cattle upon experimental, intramammary infection. Four hours after the intramammary infection of lactating mice with S. aureus Newbould, compound YT709 was instilled into the infected glands. Different intramammary dosages of YT709 were tested and their efficacy compared to an infected, untreated control group. Fourteen hours after intramammary application of YT709, the glands of the treated and untreated mice were removed, homogenized and the number of S. aureus bacteria counted in 10-fold dilutions of the homogenized glands. The mean S. aureus count of 8 untreated glands was 10^8.64 (8.64 log 10) bacteria. The mean S. aureus count in 6 glands that had been treated with 200 microgram YT709 was 10^5.10 bacteria (5.10 log 10). […] The mean S. aureus count in the 5 glands that had been treated with 400 microgram YT709 was 10^2.34 bacteria (2.34 log 10).

[11] = test system: M. hemolytica KB346 (Tilmicosin-low sensitivity strain); assay: Paper disc assay, M. hemolytica KB346; type: cell-based, Mannhemia hemolytica; conditions: 10 mg/6 mm disk; Table 5
Experimental: (1) Antibacterial activities against Mannheimia and Pasteurella were determined by the following steps: • 1) M. hemolytica KB345 (Tilmicosin-sensitivity strain) and M. hemolytica KB346 (Tilmicosin-low sensitivity strain) were provided. KB 345 strain stored at −80° C. was seeded to BHIB agar medium (10 mL) by using Microbank beads (Pro-Lab) and platinum nail. After statically incubating the KB 345 strain for 24 hours at 37° C., it was seeded to maintaining slant BHIB agar medium (7 mL) by using platinum loop, further statically incubated for 24 hours at 37° C. to obtain slant. One platinum loop of KB 345 strain stored at the slant was inoculated into a large test tube charged with BHIB liquid medium (10 mL) and then incubated for 24 hours at 37° C. with shaking. • 2) A paper disc (ADVANTEC, Φ:6 mm) was impregnated with a solution of test compound and dried under reduced pressure. • 3) To a melted BHIB agar medium was inoculated 1% of the broth obtained from step 1) above to prepare a test plate. After the medium set, the paper disc prepared in step 2) above was put on the plate and it was incubated at 37° C. • 4) After one day, the inhibition zone diameter and clarity (A to E) were determined. For KB346 strain, the same procedures were repeated.

[12] = test system: Bacillus subtilis ATCC6633; assay: Paper disc assay, Bacillus subtilis; type: cell-based; conditions: S
Experimental: (§3) (2) Antibacterial activities against other bacteria were determined with Micrococcus luteus ATCC9341 (1), Bacillus subtilis […] (s), Escherichia coli NIHJ (c), Xanthomonas campestris KB88 (X), Mucor racemosus IFO 4581 (Mu) and Candida albicans ATCC 64548 (Ca).
(§4) Bacillus subtilis ATCC6633 was incubated in Davis synthetic medium and then the seed broth was combined with the medium in the ratio of 1:99 to obtain a test plate. Micrococcus luteus ATCC9341, Escherichia coli NIHJ and Xanthomonas campestris KB88 were respectively incubated in Nutrient agar medium and inoculated at 0.2%, 0.5% and 1.0%. Mucor racemosus IFO 4581 and Candida albicans ATCC 64548 were respectively incubated in GY agar medium and then inoculated at 0.3% and 0.2%.
(§5) A paper disc (ADVANTEC, Φ:6 mm) was impregnated with a solution of test compound and dried under reduced pressure. The paper disc was put on the test plate and it was incubated for 24 hours at 37° C. After incubation, the inhibition zone diameter and clarity (A to E) were determined.

[13] = test system: Micrococcus luteus ATCC9341; assay: Paper disc assay, Micrococcus luteus; type: cell-based; conditions: column 1
Experimental: as §3, §4, §5

[14] = test system: Escherichia coli NIHJ; assay: Paper disc assay, Escherichia coli; type: cell-based; conditions: c
Experimental: as §3, §4, §5

[15] = test system: Xanthomonas campestris KB88; assay: Paper disc assay, Xanthomonas campestris; type: cell-based; conditions: X
Experimental: as §3, §4, §5

| SMILES | MIC [2] [µg/mL] | MIC50 [3] [µg/mL] | MIC50 [4] [µg/mL] | MIC50 [5] [µg/mL] | MIC50 [6] [µg/mL] | MIC50 [7] [µg/mL] | MIC50 [8] [µg/mL] | MIC50 [9] [µg/mL] | MIC [1] [µg/mL] | Inhibition zone ([12]; 0.1 mg/6 mm disc) [mm] | Inhibition zone ([12]; 1 mg/6 mm disc) [mm] | Inhibition zone ([12]; 10 mg/6 mm disc) [mm] | Inhibition zone ([13]; 0.1 mg/6 mm disc) [mm] | Inhibition zone ([13]; 1 mg/6 mm disc) [mm] | Inhibition zone ([13]; 10 mg/6 mm disc) [mm] | Inhibition zone ([14]; 10 mg/6 mm disc) [mm] | Inhibition zone ([15]; 0.1 mg/6 mm disc) [mm] | Inhibition zone ([15]; 1 mg/6 mm disc) [mm] | Inhibition zone ([15]; 10 mg/6 mm disc) [mm] | further results |
| --- | --- | --- | --- | --- | --- | --- | --- | --- | --- | --- | --- | --- | --- | --- | --- | --- | --- | --- | --- | --- |
| CC[C@H]1OC(=O)C[C@@H](O)[C@H](C)[C@@H](O[C@@H]2OC(C)[C@@H](O)C(N(C)C)C2O)[C@@H](CCNCCn2cc(-c3ccc(-c4ccccc4)cc3)nn2)C[C@@H](C)C(=O)/C=C/C(C)=C/[C@@H]1CO (stereo partly drawn) [YT721] | 8 (≈ 9.46 µM) | 0.06 (≈ 0.0709 µM) | 8 (≈ 9.46 µM) | 0.5 (≈ 0.591 µM) | 0.125 (≈ 0.148 µM) | 0.12 (≈ 0.142 µM) | 0.25 (≈ 0.295 µM) | 0.5 (≈ 0.591 µM) | 1 to 4 (≈ 1.18 to 4.73 µM) |  |  |  |  |  |  |  |  |  |  |  |
| CC[C@H]1OC(=O)C[C@@H](O)[C@H](C)[C@@H](O[C@@H]2O[C@H](C)[C@@H](O)[C@H](N(C)C)[C@H]2O)[C@@H](CCN2C[C@H](C)C[C@H](C)C2)C[C@@H](C)C(=O)/C=C/C(C)=C/[C@@H]1CO[C@@H]1O[C@H](C)[C@@H](O)[C@@H](OC)[C@H]1OC [Tilmicosin, tilmicosin, reference compound] |  |  |  |  |  |  |  |  |  | 14 | 11 | 18 | 12 | 19 | 27.5 | 20 | 12 | 20 | 30 | Inhibition zone [11]: 11.0 mm; Inhibition zone ([14]; 1 mg/6 mm disc): 13 mm |
| CC[C@H]1OC(=O)C[C@@H](O)[C@H](C)[C@@H](O[C@@H]2O[C@H](C)[C@@H](O)[C@H](N(C)C)[C@H]2O)[C@@H](CCn2cc(-c3ccsc3)nn2)C[C@@H](C)C(=O)/C=C/C(C)=C/[C@@H]1CO[C@@H]1O[C@H](C)[C@@H](O)[C@@H](OC)[C@H]1OC [YT14, 20-(4-(thiophene-3-yl)-1H-1,2,3-triazol-1-yl)-20-deoxodesmycosin] |  |  |  |  |  |  |  |  |  | 8 | 11 | 15 | 13.5 | 20.5 | 26.5 | 7 | 7 | 16 | 22 |  |

Further lines, with some results ahead:

| MIC [2] [µg/mL] | MIC50 [3] [µg/mL] | MIC50 [4] [µg/mL] | MIC50 [5] [µg/mL] | MIC50 [6] [µg/mL] | MIC50 [7] [µg/mL] | MIC50 [8] [µg/mL] | MIC50 [9] [µg/mL] | SMILES | MIC [1] [µg/mL] | Inhibition zone ([12]; 0.1 mg/6 mm disc) [mm] | Inhibition zone ([12]; 1 mg/6 mm disc) [mm] | Inhibition zone ([12]; 10 mg/6 mm disc) [mm] | Inhibition zone ([13]; 0.1 mg/6 mm disc) [mm] | Inhibition zone ([13]; 1 mg/6 mm disc) [mm] | Inhibition zone ([13]; 10 mg/6 mm disc) [mm] | Inhibition zone ([14]; 10 mg/6 mm disc) [mm] | Inhibition zone ([15]; 0.1 mg/6 mm disc) [mm] | Inhibition zone ([15]; 1 mg/6 mm disc) [mm] | Inhibition zone ([15]; 10 mg/6 mm disc) [mm] | further results |
| --- | --- | --- | --- | --- | --- | --- | --- | --- | --- | --- | --- | --- | --- | --- | --- | --- | --- | --- | --- | --- |
| 2 to 4 (≈ 2.44 to 4.87 µM) | 0.008 (≈ 0.00974 µM) | 8 (≈ 9.74 µM) | 0.5 (≈ 0.609 µM) | 0.03 (≈ 0.0365 µM) | 0.03 (≈ 0.0365 µM) | 0.12 (≈ 0.146 µM) | 0.25 (≈ 0.304 µM) | CC[C@H]1OC(=O)C[C@@H](O)[C@H](C)[C@@H](O[C@@H]2OC(C)[C@@H](O)C(N(C)C)C2O)[C@@H](CCNCCn2cc(-c3cnc4ccccc4c3)nn2)C[C@@H](C)C(=O)/C=C/C(C)=C/[C@@H]1CO (stereo partly drawn) [YT732] | 1 to 4 (≈ 1.22 to 4.87 µM) |  |  |  |  |  |  |  |  |  |  |  |
| 2 to 4 (≈ 2.23 to 4.46 µM) | 0.008 (≈ 0.00892 µM) | 16 (≈ 17.8 µM) | ≤ 0.03 | 0.06 (≈ 0.0669 µM) | 0.06 (≈ 0.0669 µM) | 0.06 (≈ 0.0669 µM) | ≤ 0.03 | CC[C@H]1OC(=O)C[C@@H](O)[C@H](C)[C@@H](O[C@@H]2OC(C)[C@@H](O)C(N(C)C)C2O)[C@@H](CCN(Cc2ccccc2)Cc2cn(-c3cnc4ccccc4c3)nn2)C[C@@H](C)C(=O)/C=C/C(C)=C/[C@@H]1CO (stereo partly drawn) [YT709] | 2 to 4 (≈ 2.23 to 4.46 µM) |  |  |  |  |  |  |  |  |  |  | reduction of number of bacteria vs untreated glands ([10]; 200 microgram intramammary): about 3500 fold; mean S. aureus count in glands ([10]; 200 microgram intramammary, 6 glands): 5.10 log 10; glands in which the infection was cleared ([10]; 400 microgram intramammary): 2 out of 5; reduction of number of bacteria vs untreated glands ([10]; 400 microgram intramammary): about two million; mean S. aureus count in glands ([10]; 400 microgram intramammary, 5 glands): 2.34 log 10 |
